From ChEMBL document CHEMBL3991601, “The target landscape of clinical kinase drugs” (Science, 2017)
Structures can show the parent of a compound that is named as a salt. Activity calls are given as the source filed them. Rule as the data show it: actives have a measured Kd and inactives only a lower limit.

Experiments:
[1] = biological target: T1, Cyclin-G-associated kinase (Homo sapiens, UniProt O14976)
T1 sequence (O14976 whole entry): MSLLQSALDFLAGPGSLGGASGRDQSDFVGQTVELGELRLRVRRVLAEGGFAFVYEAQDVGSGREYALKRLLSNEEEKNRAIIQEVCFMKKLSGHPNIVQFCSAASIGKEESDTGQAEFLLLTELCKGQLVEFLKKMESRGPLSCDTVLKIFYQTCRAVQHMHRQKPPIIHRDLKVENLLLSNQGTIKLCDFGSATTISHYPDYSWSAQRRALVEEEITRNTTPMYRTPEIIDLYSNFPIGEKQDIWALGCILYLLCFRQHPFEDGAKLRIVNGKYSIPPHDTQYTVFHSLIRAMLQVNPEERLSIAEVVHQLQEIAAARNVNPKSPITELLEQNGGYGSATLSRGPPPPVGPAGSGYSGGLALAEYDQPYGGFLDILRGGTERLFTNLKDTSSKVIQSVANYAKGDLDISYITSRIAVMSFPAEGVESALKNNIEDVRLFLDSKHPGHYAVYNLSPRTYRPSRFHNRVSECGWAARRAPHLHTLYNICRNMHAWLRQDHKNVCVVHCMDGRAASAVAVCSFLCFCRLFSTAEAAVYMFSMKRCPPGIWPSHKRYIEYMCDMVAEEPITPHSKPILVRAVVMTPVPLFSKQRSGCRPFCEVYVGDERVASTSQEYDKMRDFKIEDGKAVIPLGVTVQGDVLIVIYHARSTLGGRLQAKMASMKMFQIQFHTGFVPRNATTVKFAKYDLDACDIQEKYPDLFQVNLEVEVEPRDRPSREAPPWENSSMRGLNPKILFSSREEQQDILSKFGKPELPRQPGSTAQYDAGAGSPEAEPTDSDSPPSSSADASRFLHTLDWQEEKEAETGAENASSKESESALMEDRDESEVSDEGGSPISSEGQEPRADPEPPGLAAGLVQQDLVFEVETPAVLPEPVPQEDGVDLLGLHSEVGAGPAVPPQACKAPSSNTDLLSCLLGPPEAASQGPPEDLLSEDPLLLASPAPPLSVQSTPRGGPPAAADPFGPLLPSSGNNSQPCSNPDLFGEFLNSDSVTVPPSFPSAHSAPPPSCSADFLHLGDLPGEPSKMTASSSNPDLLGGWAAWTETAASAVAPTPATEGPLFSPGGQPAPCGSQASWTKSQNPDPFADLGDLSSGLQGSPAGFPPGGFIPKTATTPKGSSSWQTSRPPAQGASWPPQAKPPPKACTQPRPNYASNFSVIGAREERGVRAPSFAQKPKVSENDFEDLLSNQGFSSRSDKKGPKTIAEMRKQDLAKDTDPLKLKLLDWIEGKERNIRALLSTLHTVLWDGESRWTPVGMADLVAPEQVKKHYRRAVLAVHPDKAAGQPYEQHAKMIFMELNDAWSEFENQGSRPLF

[2] = biological target: T2, Phosphorylase b kinase gamma catalytic chain, liver/testis isoform (Homo sapiens, UniProt P15735)
T2 sequence (P15735 whole entry): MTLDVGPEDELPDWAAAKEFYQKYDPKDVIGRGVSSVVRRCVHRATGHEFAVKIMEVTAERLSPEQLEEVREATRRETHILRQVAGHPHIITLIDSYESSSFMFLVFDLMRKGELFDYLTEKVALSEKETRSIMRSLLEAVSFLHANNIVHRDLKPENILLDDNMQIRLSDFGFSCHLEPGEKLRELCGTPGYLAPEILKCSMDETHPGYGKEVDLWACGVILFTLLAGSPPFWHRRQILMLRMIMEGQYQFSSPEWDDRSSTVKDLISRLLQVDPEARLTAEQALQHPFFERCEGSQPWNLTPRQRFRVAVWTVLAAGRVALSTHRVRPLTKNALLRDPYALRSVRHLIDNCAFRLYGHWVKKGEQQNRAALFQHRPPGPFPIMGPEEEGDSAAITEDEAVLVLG

[3] = biological target: T3, Phosphatidylinositol 5-phosphate 4-kinase type-2 gamma (Homo sapiens, UniProt Q8TBX8)
T3 sequence (Q8TBX8 whole entry): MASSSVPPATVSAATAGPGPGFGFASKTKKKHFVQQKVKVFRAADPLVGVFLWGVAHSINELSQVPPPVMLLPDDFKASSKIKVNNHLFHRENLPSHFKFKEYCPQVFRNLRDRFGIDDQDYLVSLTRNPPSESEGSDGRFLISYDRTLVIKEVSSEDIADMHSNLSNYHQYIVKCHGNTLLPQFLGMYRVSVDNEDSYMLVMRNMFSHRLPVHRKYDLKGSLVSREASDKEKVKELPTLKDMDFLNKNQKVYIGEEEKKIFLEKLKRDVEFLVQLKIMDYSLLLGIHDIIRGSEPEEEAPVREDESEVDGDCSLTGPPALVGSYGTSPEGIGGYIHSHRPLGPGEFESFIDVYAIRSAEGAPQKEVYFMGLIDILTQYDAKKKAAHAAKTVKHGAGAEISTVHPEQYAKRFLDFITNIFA

[4] = biological target: T4, Serine/threonine-protein kinase D2 (Homo sapiens, UniProt Q9BZL6)
T4 sequence (Q9BZL6 whole entry): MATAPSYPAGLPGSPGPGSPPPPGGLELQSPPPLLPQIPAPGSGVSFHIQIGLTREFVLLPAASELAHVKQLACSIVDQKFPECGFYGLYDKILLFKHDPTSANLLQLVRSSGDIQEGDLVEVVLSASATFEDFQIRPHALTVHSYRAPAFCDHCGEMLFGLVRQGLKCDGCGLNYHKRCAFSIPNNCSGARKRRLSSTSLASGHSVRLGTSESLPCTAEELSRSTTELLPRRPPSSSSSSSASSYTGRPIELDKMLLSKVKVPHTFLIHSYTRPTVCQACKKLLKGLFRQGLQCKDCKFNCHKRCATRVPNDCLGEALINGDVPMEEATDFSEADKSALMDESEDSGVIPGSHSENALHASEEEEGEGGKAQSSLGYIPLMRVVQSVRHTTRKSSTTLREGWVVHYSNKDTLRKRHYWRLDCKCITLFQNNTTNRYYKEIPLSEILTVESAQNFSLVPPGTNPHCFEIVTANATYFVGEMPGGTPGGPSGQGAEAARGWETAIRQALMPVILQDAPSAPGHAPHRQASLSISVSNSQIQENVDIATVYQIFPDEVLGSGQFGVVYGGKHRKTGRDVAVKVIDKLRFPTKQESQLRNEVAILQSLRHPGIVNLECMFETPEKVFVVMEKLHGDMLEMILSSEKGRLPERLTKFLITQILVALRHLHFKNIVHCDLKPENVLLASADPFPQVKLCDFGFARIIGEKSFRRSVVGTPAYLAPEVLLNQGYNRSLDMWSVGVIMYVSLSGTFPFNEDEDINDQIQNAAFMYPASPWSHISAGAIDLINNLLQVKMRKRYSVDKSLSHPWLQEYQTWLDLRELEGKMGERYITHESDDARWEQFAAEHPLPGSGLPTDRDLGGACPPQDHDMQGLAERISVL

[5] = biological target: Receptor-interacting serine/threonine-protein kinase 2 (Homo sapiens, UniProt O43353)
Also: in the data inactive means no Kd found up to 30 µM.

Chain of Receptor-interacting serine/threonine-protein kinase 2 (O43353 whole entry): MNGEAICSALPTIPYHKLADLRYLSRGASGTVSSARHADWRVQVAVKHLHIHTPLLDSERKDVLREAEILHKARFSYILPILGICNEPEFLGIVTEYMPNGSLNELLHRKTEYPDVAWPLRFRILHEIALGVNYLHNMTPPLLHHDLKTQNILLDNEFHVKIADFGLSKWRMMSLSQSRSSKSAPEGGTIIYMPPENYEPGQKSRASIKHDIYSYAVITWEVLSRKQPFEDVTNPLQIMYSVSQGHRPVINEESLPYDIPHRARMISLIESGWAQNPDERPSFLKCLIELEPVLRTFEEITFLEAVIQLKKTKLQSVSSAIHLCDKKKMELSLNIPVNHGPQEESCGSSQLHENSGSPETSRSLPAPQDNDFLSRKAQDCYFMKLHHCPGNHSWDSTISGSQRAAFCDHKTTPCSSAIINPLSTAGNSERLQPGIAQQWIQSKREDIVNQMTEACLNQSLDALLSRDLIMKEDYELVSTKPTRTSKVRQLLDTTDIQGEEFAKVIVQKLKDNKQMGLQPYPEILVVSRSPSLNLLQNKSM

Compound: Nc1ncnc2c1c(-c1cccc(OCc3ccccc3)c1)cn2[C@H]1C[C@@H](CN2CCC2)C1 [AEW-541]
- Kd [1]: > 30 µM (inactive)
- Kd [2]: > 30 µM (inactive)
- Kd [3]: > 30 µM (inactive)
- Kd [4]: > 30 µM (inactive)
- Kd [5]: 0.355 µM (active)

Compound: C=CC(=O)Nc1cc2c(Nc3ccc(F)c(Cl)c3)ncnc2cc1C#CC(C)(C)N1CCN(C)CC1 [AV-412 FREE BASE]
- Kd [1]: > 30 µM (inactive)
- Kd [2]: > 30 µM (inactive)
- Kd [3]: > 30 µM (inactive)
- Kd [4]: > 30 µM (inactive)
- Kd [5]: > 30 µM (inactive)

Compound: COc1cc([C@@H]2c3cc4c(cc3[C@H](O)[C@H]3COC(=O)[C@@H]23)OCO4)cc(OC)c1OC [AXL-1717]
- Kd [1]: > 30 µM (inactive)
- Kd [2]: > 30 µM (inactive)
- Kd [3]: > 30 µM (inactive)
- Kd [4]: > 30 µM (inactive)
- Kd [5]: > 30 µM (inactive)

Compound: NC(=O)Nc1cc(-c2cccc(F)c2)sc1C(=O)N[C@H]1CCCNC1 [AZD-7762]
- Kd [1]: 0.202 µM (active)
- Kd [2]: > 30 µM (inactive)
- Kd [3]: > 30 µM (inactive)
- Kd [4]: 1.16 µM (active)
- Kd [5]: > 30 µM (inactive)

Compound: Cc1cc(C(=O)NOCCO)c(Nc2ccc(I)cc2F)n(C)c1=O [AZD-8330]
- Kd [1]: > 30 µM (inactive)
- Kd [2]: > 30 µM (inactive)
- Kd [3]: > 30 µM (inactive)
- Kd [4]: > 30 µM (inactive)
- Kd [5]: > 30 µM (inactive)

Compound: Cn1cnc2c(F)c(Nc3ccc(Br)cc3F)c(C(=O)NOCCO)cc21 [BINIMETINIB]
- Kd [1]: > 30 µM (inactive)
- Kd [2]: > 30 µM (inactive)
- Kd [3]: > 30 µM (inactive)
- Kd [4]: > 30 µM (inactive)
- Kd [5]: > 30 µM (inactive)

Compound: CCn1c(C(=O)N(C2CC2)C2CC2)cc2c3c(ncn3C)c(Nc3cc(C)n(C)n3)nc21 [BMS-911543]
- Kd [1]: > 30 µM (inactive)
- Kd [2]: > 30 µM (inactive)
- Kd [3]: > 30 µM (inactive)
- Kd [4]: > 30 µM (inactive)
- Kd [5]: > 30 µM (inactive)

Compound: COc1cc2ncnc(Oc3cccc(NC(=O)Nc4cc(C(C)(C)C(F)(F)F)on4)c3)c2cc1OC [CEP-32496]
- Kd [1]: > 30 µM (inactive)
- Kd [2]: > 30 µM (inactive)
- Kd [3]: > 30 µM (inactive)
- Kd [4]: > 30 µM (inactive)
- Kd [5]: 0.442 µM (active)

Compound: Cc1cc(Nc2ncc(Cl)c(Nc3ccccc3S(=O)(=O)C(C)C)n2)c(OC(C)C)cc1C1CCNCC1 [CERITINIB]
- Kd [1]: > 30 µM (inactive)
- Kd [2]: > 30 µM (inactive)
- Kd [3]: > 30 µM (inactive)
- Kd [4]: > 30 µM (inactive)
- Kd [5]: > 30 µM (inactive)

Compound: COc1c(OCCCN2CCOCC2)ccc2c1N=C(NC(=O)c1cnc(N)nc1)N1CCN=C21 [COPANLISIB]
- Kd [1]: > 30 µM (inactive)
- Kd [2]: > 30 µM (inactive)
- Kd [3]: > 30 µM (inactive)
- Kd [4]: > 30 µM (inactive)
- Kd [5]: > 30 µM (inactive)

Compound: COCC(=O)NC/C=C/c1ccc2ncnc(Nc3ccc(Oc4ccc(C)nc4)c(C)c3)c2c1 [CP-724714]
- Kd [1]: > 30 µM (inactive)
- Kd [2]: > 30 µM (inactive)
- Kd [3]: > 30 µM (inactive)
- Kd [4]: > 30 µM (inactive)
- Kd [5]: > 30 µM (inactive)

Compound: C#Cc1cccc(Nc2ncnc3cc(OC)c(OCCCCCCC(=O)NO)cc23)c1 [CUDC-101]
- Kd [1]: 0.482 µM (active)
- Kd [2]: > 30 µM (inactive)
- Kd [3]: > 30 µM (inactive)
- Kd [4]: > 30 µM (inactive)
- Kd [5]: 1.09 µM (active)

Compound: CCS(=O)(=O)N1CCN(c2ccc(Nc3ncc(C(N)=O)c(NC4CC4)n3)cc2)CC1 [Cerdulatinib Hydrochloride]
- Kd [1]: 0.552 µM (active)
- Kd [2]: > 30 µM (inactive)
- Kd [3]: > 30 µM (inactive)
- Kd [4]: 1.21 µM (active)
- Kd [5]: > 30 µM (inactive)

Compound: CC(C)(C)c1nc(-c2cccc(NS(=O)(=O)c3c(F)cccc3F)c2F)c(-c2ccnc(N)n2)s1 [DABRAFENIB]
- Kd [1]: > 30 µM (inactive)
- Kd [2]: > 30 µM (inactive)
- Kd [3]: > 30 µM (inactive)
- Kd [4]: 0.034 µM (active)
- Kd [5]: 0.106 µM (active)

Compound: Cc1nc2cc(-n3ncc(C(=O)c4cc5ccccc5[nH]4)c3N)ccc2[nH]1 [FGFR INHIBITOR DEBIO 1347]
- Kd [1]: > 30 µM (inactive)
- Kd [2]: > 30 µM (inactive)
- Kd [3]: > 30 µM (inactive)
- Kd [4]: > 30 µM (inactive)
- Kd [5]: > 30 µM (inactive)

Compound: O=C(Nc1nc2cccc(-c3ccc(CN4CCS(=O)(=O)CC4)cc3)n2n1)C1CC1 [FILGOTINIB]
- Kd [1]: > 30 µM (inactive)
- Kd [2]: > 30 µM (inactive)
- Kd [3]: > 30 µM (inactive)
- Kd [4]: > 30 µM (inactive)
- Kd [5]: > 30 µM (inactive)

Compound: Cc1cccc(-c2nn3c(c2-c2ccnc4ccc(C(N)=O)cc24)CCC3)n1 [GALUNISERTIB]
- Kd [1]: 0.495 µM (active)
- Kd [2]: > 30 µM (inactive)
- Kd [3]: > 30 µM (inactive)
- Kd [4]: > 30 µM (inactive)
- Kd [5]: 0.038 µM (active)

Compound: COc1ccc(S(=O)(=O)N(C(C)=O)c2ccccc2/C=C/c2cc[n+]([O-])cc2)cc1 [HMN-214]
- Kd [1]: > 30 µM (inactive)
- Kd [2]: > 30 µM (inactive)
- Kd [3]: > 30 µM (inactive)
- Kd [4]: > 30 µM (inactive)
- Kd [5]: > 30 µM (inactive)

Compound: CNC(=O)c1cccc2cc(Oc3ccnc4cc(OCC5(N)CC5)c(OC)cc34)ccc12 [LUCITANIB]
- Kd [1]: > 30 µM (inactive)
- Kd [2]: > 30 µM (inactive)
- Kd [3]: > 30 µM (inactive)
- Kd [4]: > 30 µM (inactive)
- Kd [5]: 0.199 µM (active)

Compound: CNC(=O)c1nn(C)c2c1C(C)(C)Cc1cnc(Nc3ccc(N4CCN(C)CC4)cc3)nc1-2 [MILCICLIB]
- Kd [1]: 0.003 µM (active)
- Kd [2]: 18.6 µM
- Kd [3]: 1.43 µM (active)
- Kd [4]: 0.143 µM (active)
- Kd [5]: > 30 µM (inactive)

Compound: NC1(c2ccc(-c3nc4ccn5c(=O)[nH]nc5c4cc3-c3ccccc3)cc2)CCC1 [MK-2206]
- Kd [1]: > 30 µM (inactive)
- Kd [2]: > 30 µM (inactive)
- Kd [3]: > 30 µM (inactive)
- Kd [4]: > 30 µM (inactive)
- Kd [5]: > 30 µM (inactive)
